Patent US20240300945A1, “CLY SERIES COMPOUND, PREPARATION METHOD THEREFOR AND USE THEREOF IN PREPARATION OF DRUGS” (NANJING WELLBEST PHARMACEUTICAL CO., LTD, priority 2021, published 2024)

Tested on: acute GVHD mice
Assay: Mouse model of acute graft-versus-host disease
Type: in vivo, BALB/c mice
Details: 5 mg/kg/d intravenously; for pathological changes of liver: 2 weeks after transplantation, hematoxylin-eosin; for clinical symptom score (GVHD): 11th day after transplantation, acute GVHD group 7.48±0.77; for survival rate of mice: Kaplan-Meier, three weeks after transplantation, acute GVHD group 12.13%
Experimental: Preparation of bone marrow cells: the donor mice were sacrificed by cervical dislocation, soaked in 75% ethanol for 5 minutes, and the two femurs and tibia of the mice were taken out under sterile conditions in the ultra-clean table, and placed in RPMI1640 medium containing 2% fetal bovine serum. Rinsed the bone marrow cavity with RPMI1640 culture medium, took out the bone marrow cells, blew them into the bone marrow suspension with sterile washing tube, filtered them with a 200 mesh filter, centrifuged for 10 min at 1500 r/min, collected the cell precipitates, and added physiological saline for resuspension. In addition, took a small amount of cell suspension and counted the number of nucleated cells after removing the red blood cells from the red blood cell lysate. And adjusted the concentration of nucleated cells in bone marrow suspension to 5×1010 L-1.
Preparation of spleen mononuclear cells: cut the spleen envelope aseptically, put it on a 200-mesh filter screen, soaked it in RPMI1640 medium containing 2% fetal bovine serum by volume, gently grinded the spleen with the handle of a sterile syringe, washed the filter screen several times with the culture medium, collected the filtered spleen cell suspension, centrifuged it at 1500 r/min for 10 min, and collected the spleen cell precipitation. After PBS resuspension, it was blown into a single cell suspension, gently placed on the upper layer of mouse spleen lymphocyte separation solution, centrifuged at 1800 r/min for 20 min, and white membrane cells were collected. PBS was washed twice. After cell count, the cell density was adjusted to 5×1010 L-1, and put in a 4° C. refrigerator for use.
C57BL/6 mice were used as bone marrow transplantation donors and BABL/c mice as recipients. BABL/c mice were randomly divided into the control group, model group, and CLY treatment group (each group was injected with 5 mg/kg/d compound CLY-1, CLY-2, or CLY-8 intravenously) according to the number of body weight, with 6 mice in each group. One week before transplantation, BALB/c mice were fed sterile acidified water containing 200 mg/L gentamicin, and mice were given 8.5 Gy whole-body irradiation (cesium source) within 24 hours before transplantation. Model group and CLY-1 group, CLY-2 group, and CLY-8 group were injected with C57BL/6 mouse bone marrow nucleated cells (including cell 1×107) and spleen mononuclear cells (including cell 5×106) 0.5 mL of mixed solution was used to establish acute GVHD model in mice, and 0.5 mL of normal saline was infused into the tail vein of BABL/c mice in the control group. CLY-1 group, CLY-2 group, and CLY-8 group were injected with CLY compound solution of 5 mg/kg/d intravenously, and the other groups were injected with saline of 5 mg/kg/d.
1.3.1 GVHD symptom score of mice: observed the general conditions of mice every day after transplantation, including body mass, fur, posture, activity, diarrhea, and mental state, and determined whether the mice had acute GVHD. According to the clinical GVHD symptom scoring standard, the clinical GVHD symptoms of mice in each group were scored 11 days after transplantation.
1.3.2 Analysis of mouse survival time: collected the survival data of mice in each group three weeks after transplantation, drew the survival curve by the Kaplan-Meier method, and compared the differences between the survival rates of mice in each group by Log-rank analysis method.
1.3.3 Histopathological examination: two weeks after transplantation, three mice with GVHD were taken from each group, and the back skin tissue, liver, and small intestine tissue were taken. 40 g/L paraformaldehyde was fixed, paraffin was fixed and embedded, hematoxylin-eosin staining was performed, and the pathological changes of each tissue were observed under the light microscope.

Row | Compound | pathological changes of liver | clinical symptom score (GVHD) | survival rate of mice [%]
1 | CN1CCC[C@@H](N(C(=O)c2ccc(-n3nnc4cccnc43)cc2)c2ncccc2Cl)C1 [CLY-1, (R)-4-(3H-[1,2,3]triazolo[4,5-b]pyridin-3-yl)-N-(3-chloropyridin-2-yl)-N-(1-methylpiperidin-3-yl)benzamide] | only small necrotic lesions | 5.28±0.53 | 61.26
2 | CCN1CCC[C@@H](N(C(=O)c2ccc(-n3nnc4cccnc43)cc2)c2ncccc2Cl)C1 [CLY-2, (R)-4-(3H-[1,2,3]triazolo[4,5-b]pyridin-3-yl)-N-(3-chloropyridin-2-yl)-N-(1-ethylpiperidin-3-yl)benzamide] | only small necrotic lesions | 4.68±0.42 | 58.79
3 | O=C(c1ccc(-n2nnc3cccnc32)cc1)N(c1ncccc1Cl)[C@@H]1CCNC1 [CLY-8, (R)-4-(3H-[1,2,3]triazolo[4,5-b]pyridin-3-yl)-N-(3-chloropyridin-2-yl)-N-(pyrrolidin-3-yl)benzamide] | only small necrotic lesions | 4.56±0.39 | 63.48
